Assay results taken from article PMC2229834 (Molecular Microbiology, 2007).

Tests used:
E. coli PTPS (EcPTPS) = target: T1, E. coli PTPS (EcPTPS) (Escherichia coli, UniProt P65870); assay: HPLC with fluorescence of iodine-oxidised pterin products; format: biochemical; conditions: 9 uM DHNTP, 10 mM MgCl2, 2 mM DTT, pH 8.0, 37 C, 1 h
T1 sequence (P65870 1-121): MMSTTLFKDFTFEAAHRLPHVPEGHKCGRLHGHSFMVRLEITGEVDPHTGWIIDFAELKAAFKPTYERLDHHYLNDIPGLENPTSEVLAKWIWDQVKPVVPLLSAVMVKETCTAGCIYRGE

human PTPS (HsPTPS) = target: T2, human PTPS (HsPTPS) (Homo sapiens, UniProt Q03393); assay: as above; format: biochemical; conditions: 9 uM DHNTP, 10 mM MgCl2, 2 mM DTT, pH 8.0, 37 C, 1 h
T2 sequence (Q03393 1-145): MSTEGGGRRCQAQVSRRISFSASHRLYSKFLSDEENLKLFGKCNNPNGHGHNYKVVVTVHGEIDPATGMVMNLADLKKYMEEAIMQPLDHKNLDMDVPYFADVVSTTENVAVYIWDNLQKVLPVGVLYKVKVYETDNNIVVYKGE

Nc1nc2c(c(=O)[nH]1)N=C([C@H](O)[C@H](O)COP(=O)(O)OP(=O)(O)OP(=O)(O)O)CN2 [DHNTP] was tested, and the “HPLC with fluorescence of iodine-oxidised pterin products” value (E. coli PTPS (EcPTPS)) was “Both the bacterial and human enzymes converted DHNTP to PTP as expected” and the “HPLC with fluorescence of iodine-oxidised pterin products” value (human PTPS (HsPTPS)) was “Both the bacterial and human enzymes converted DHNTP to PTP as expected”.
